Measured values: patent publication US20260293949A1, “CARBONATION SENSATION IMPARTING OR ENHANCING AGENT” (TAKASAGO INTERNATIONAL CORPORATION, priority 2022, published 2026)
“Also recorded” adds a separate entry of the source.

How the values were obtained:
[1] = Sensory evaluation of fizziness enhancement in carbonated water (WILKINSON TANSAN), specialized panelists; assay type: in vivo; conditions: for Fizziness enhancement evaluation result: average score of seven panelists, 1 to 5
Procedure: In the following Examples, the action and effect were verified using a value obtained by calculating an average score of scores for imparting or enhancing fizziness by sensory evaluation conducted by specialized panelists. The expression “1 point” in the evaluation is the evaluation in the case where no component is added at all (no addition).
Diethyl sebacate (manufactured by Inoue Perfumery Mfg. Co., Ltd., the same applies to the following Examples) was separately added to “WILKINSON (registered trademark) TANSAN (manufactured by Asahi Soft Drinks Co., Ltd.)” so as to reach the concentrations shown in Table 2 below, and sensory evaluation was performed by seven specialized panelists to determine the extent to which fizziness was enhanced as compared with a control in which diethyl sebacate was not added.
Diisobutyl adipate (manufactured by Inoue Perfumery Mfg. Co., Ltd., the same applies to the following Examples) was separately added to “WILKINSON (registered trademark) TANSAN (manufactured by Asahi Soft Drinks Co., Ltd.)” so as to reach the concentrations shown in Table 3 below, and sensory evaluation was performed by seven specialized panelists to determine the extent to which fizziness was enhanced as compared with a control in which diisobutyl adipate was not added.
Dimethyl sebacate (manufactured by Tokyo Chemical Industry Co., Ltd.) was separately added to “WILKINSON (registered trademark) TANSAN (manufactured by Asahi Soft Drinks Co., Ltd.)” so as to reach the concentrations shown in Table 4 below, and sensory evaluation was performed by seven specialized panelists to determine the extent to which fizziness was enhanced as compared with a control in which dimethyl sebacate was not added.
Dipropyl adipate (manufactured by Tokyo Chemical Industry Co., Ltd.) was separately added to “WILKINSON (registered trademark) TANSAN (manufactured by Asahi Soft Drinks Co., Ltd.)” so as to reach the concentrations shown in Table 5 below, and sensory evaluation was performed by seven specialized panelists to determine the extent to which fizziness was enhanced as compared with a control in which dipropyl adipate was not added.

[2] = molecular target: T1, human TRPV1 (Homo sapiens, UniProt Q8NER1); experiment: Evaluation of human TRPV1 activity in stably expressing cells (Fluo 4-AM calcium fluorescence); assay type: cell-based; conditions: human TRPV1 stably expressing Flp-In 293 cells; fluorescence 485/525 nm, 27° C.
T1 construct: doxycycline-inducible Flp-In T-REx 293 cells; Fluo-4 calcium assay
T1 sequence (Q8NER1 whole entry): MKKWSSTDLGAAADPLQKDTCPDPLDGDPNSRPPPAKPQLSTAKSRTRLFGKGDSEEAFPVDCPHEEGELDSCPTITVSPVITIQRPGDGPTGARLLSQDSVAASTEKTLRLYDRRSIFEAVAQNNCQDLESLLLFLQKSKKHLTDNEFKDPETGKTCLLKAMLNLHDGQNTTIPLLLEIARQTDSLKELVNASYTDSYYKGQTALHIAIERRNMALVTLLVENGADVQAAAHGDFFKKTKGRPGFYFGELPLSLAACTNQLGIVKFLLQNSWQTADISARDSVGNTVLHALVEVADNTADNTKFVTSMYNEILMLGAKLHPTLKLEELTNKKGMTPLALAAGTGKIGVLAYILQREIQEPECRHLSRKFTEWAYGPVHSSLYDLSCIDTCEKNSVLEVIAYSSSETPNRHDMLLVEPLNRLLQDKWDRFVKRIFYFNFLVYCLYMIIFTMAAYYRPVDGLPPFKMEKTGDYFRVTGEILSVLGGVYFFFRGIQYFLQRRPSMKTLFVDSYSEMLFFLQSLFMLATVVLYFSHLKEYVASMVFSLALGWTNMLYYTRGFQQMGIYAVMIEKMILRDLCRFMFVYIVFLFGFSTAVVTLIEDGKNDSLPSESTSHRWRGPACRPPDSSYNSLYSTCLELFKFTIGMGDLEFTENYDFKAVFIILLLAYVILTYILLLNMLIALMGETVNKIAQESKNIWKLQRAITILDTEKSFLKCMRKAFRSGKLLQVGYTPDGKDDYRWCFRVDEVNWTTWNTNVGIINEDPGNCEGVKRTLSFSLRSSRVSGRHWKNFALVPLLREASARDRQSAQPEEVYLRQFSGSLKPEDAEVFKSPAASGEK
From the text: The full-length human TRPA1 gene (GenBank Accession Number: NM_007332) was amplified from plasmid pFN21AB7348 (manufactured by Kazusa DNA Research Institute), and the full-length human TRPV1 gene (GenBank Accession Number: NM_018727) was amplified from pFN21AE2418 (manufactured by Kazusa DNA Research Institute) using PCR. The obtained PCR product was subcloned into pcDNA5/FRT/TO (manufactured by ThermoFisher Scientific), and then introduced into Flp-In 293 cells (manufactured by Thermo Fisher Scientific) using a Flp-In T-REX system (manufactured by Thermo Fisher Scientific) to prepare a human TRPA1 stably expressing cell line and a human TRPV1 stably expressing cell line […]
After replacing the culture medium with buffer solution, fluorescent calcium indicator Fluo 4-AM (manufactured by Dojindo Laboratories) was added and incubated at 37° C. for 1 hour. After replacing the culture solution with buffer solution again, the microplate was set to a fluorescence microplate reader FlexStation 3 (manufactured by Molecular Devices, LLC.). Diethyl sebacate was added at various concentrations at an internal temperature of 27° C., and the fluorescence intensity at a wavelength of 525 nm when excited at a wavelength of 485 nm was measured. […]

[3] = Sensory evaluation of fizziness enhancement in carbonated grapefruit flavored Chu-Hi; assay type: in vivo; conditions: for Fizziness enhancement evaluation result: carbonated Chu-Hi, average score of seven panelists, 1 to 5
[4] = carbonated grapefruit flavored Chu-Hi

Compound: CCOC(=O)CCCCCCCCC(=O)OCC [Diethyl sebacate, diethyl sebacate]
- amelioration of mouthfeel (in words) [1]: effect of ameliorating the mouthfeel was also confirmed
- fizziness enhancement (in words) [1]: fizziness of carbonated water can be enhanced
- Fizziness enhancement evaluation result ([1]; 0.1 ppm): 1.1 points
- Fizziness enhancement evaluation result ([1]; 0.3 ppm): 2.1 points
- Fizziness enhancement evaluation result ([1]; 1 ppm): 3.7 points
- Fizziness enhancement evaluation result ([1]; 5 ppm): 4.6 points
- Fizziness enhancement evaluation result ([1]; 10 ppm): 4.5 points
- Fizziness enhancement evaluation result ([1]; 20 ppm): 2.5 points
- Fizziness enhancement evaluation result ([1]; 50 ppm): 2.1 points
- Fizziness enhancement evaluation result ([1]; 100 ppm): 1.7 points
- TRPV1 activity [2]: high TRPA1 activity and TRPV1 activity; also recorded: respond
- Fizziness enhancement evaluation result ([3]; 0.1 ppm): 1.1 points
- Fizziness enhancement evaluation result ([3]; 0.3 ppm): 1.7 points
- Fizziness enhancement evaluation result ([3]; 1 ppm): 4.0 points
- Fizziness enhancement evaluation result ([3]; 5 ppm): 4.0 points
- Fizziness enhancement evaluation result ([3]; 10 ppm): 3.9 points
- Fizziness enhancement evaluation result ([3]; 20 ppm): 3.4 points
- Fizziness enhancement evaluation result ([3]; 50 ppm): 2.6 points
- Fizziness enhancement evaluation result ([3]; 100 ppm): 1.3 points
- amelioration of mouthfeel (in words) [3, 4]: effect of ameliorating the mouthfeel was also confirmed
- fizziness enhancement (in words) [3, 4]: fizziness of the carbonated grapefruit flavored Chu-Hi can be enhanced
